From patent publication US10736923B2, “Methods and compositions for generating chondrocyte lineage cells and/or cartilage like tissue” (UNIVERSITY HEALTH NETWORK, priority 2013, dated 2020)

Columns and labels:
Type in all cases: cell-based, human
[1] = tested on: hPSC-derived chondrocytes; test: CD73 flow cytometry of hPSC-derived cartilage tissues; settings: hPSC-derived cartilage tissues after 11 weeks
Source text: (§1) FIG. 6. CD73 is expressed by articular chondrocytes. Flow cytometric analyses of primary chondrocytes (A) Healthy adult articular chondrocytes and iliac crest GPC-like chondrocytes, (B) Primary fetal chondrocytes, primary (C) or passaged (passage (P)2, D) fetal chondrocytes after 9 to 10 weeks of micromass culture in the presence of TGFB3 or BMP4, and (E) hPSC-derived chondrocytes after 11 weeks derived in the presence of TGFB3 or BMP4. (F) Time course of CD73 and PDGFR-beta cells surface expression on T12 and T15 paraxial mesoderm populations, and micromass cultures treated with TGFB3 after 3 days, 10 days, and 2 weeks. (G) Time course of CD73 expression on TGFB3-treated micromasses after 3 days, 7 days, 10 days, and 2 to 5 weeks.
Primary (P0) and passaged (P2) fetal chondrocytes can also be cultured in micromass with TGFB3 or BMP4, similar to how hPSC-derived cartilage tissues are formed. TGFB3-treated fetal P0-derived or fetal P2-derived cartilage tissues contain over 93% CD73 positive cells, while BMP4 treatment reduces the percentage of CD73+ cells to 70% and 61% respectively (FIG. 6C,D). CD73 expression is also expressed by over 98% of hPSC-derived cartilage tissues derived with TGFB3-treatment (FIG. 6E). The percentage of CD73+ cells is reduced to only about 57% of cells after BMP4-treatment. […]

fetal chondrocytes = test: CD73 flow cytometry of fetal chondrocytes in micromass culture; settings: 9 to 10 weeks of micromass culture
Source text: as §1
Primary (P0) and passaged (P2) fetal chondrocytes can also be cultured in micromass with TGFB3 or BMP4, similar to how hPSC-derived cartilage tissues are formed. TGFB3-treated fetal P0-derived or fetal P2-derived cartilage tissues contain over 93% CD73 positive cells, while BMP4 treatment reduces the percentage of CD73+ cells to 70% and 61% respectively (FIG. 6C,D). CD73 expression is also expressed by over 98% of hPSC-derived cartilage tissues derived with TGFB3-treatment (FIG. 6E). The percentage of CD73+ cells is reduced to only about 57% of cells after BMP4-treatment. Thus, CD73 marks primary healthy adult ACs, a proportion of healthy fetal chondrocytes, fetal chondrocytes or passaged fetal chondrocytes cultured as micromasses in TGFB3, and TGFB3-treated articular chondrocyte-like cells derived from human PSCs.

[2] = tested on: hPSC-derived paraxial mesoderm; test: Chondrocyte specification in micromass culture with TGFB3 or BMP4 (histology, scatter flow cytometry, qRT-PCR, immunostaining)
Source text: FIG. 4. TGFB3 and BMP4 specify chondrocytes and cartilage-like tissues with articular cartilage and growth plate cartilage phenotypes. (A) Micrographs of 5 week old micromasses derived with TGFB3 or BMP4, 20× magnification. (B) Tissue histology (stained with toluidine blue) of 13 week cartilage tissues derived with TGFB3 or BMP4. […] (C) Flow cytometric analysis of forward and side cell scatter parameters of 3 week and 5 week old micromasses. Side scatter indicates cell granularity and forward cell scatter indicates cell size. (D) Comparison of hPSC-derived micromass tissues to fetal primary chondrocyte derived micromass tissues and the developing human fetal femur cartilage. Articular cartilage regions appear to have smaller cells in size compared to growth plate like regions, which contain cells which appear enlarged (hypertrophic). Cartilage tissues in micromass as well as in the fetal femur stain uniformly with the toluidine blue stain (images are pink/purple in color and indicate the presence of cartilage proteins). The BMP4-treated micromass tissues contain a large number of enlarged cells which is similar to the bottom panel of the fetal cartilage which represents a growth plate cartilage. TGFB3 treated micromass cultures contain fewer, if any, enlarged chondrocytes, and appear similar to the upper panel of the fetal cartilage which is the site of articular cartilage. (E) Micrograph using GDF5 instead of BMP4 to generate hypertrophic chondrocytes. (F) Histological analyses of cartilage tissues derived from hiPSCs stained with Toluidine blue after 12 weeks. (G,H) Immunohistochemical staining of hESC-derived cartilage tissues for type II Collagen (G, 8 week tissues), and lubricin (H, 12 week tissues).
FIG. 5. Gene expression analyses of chondrocyte specification in the presence of TGFB3 or BMP4 during stages 3 and 4 of differentiation respectively. General chondrocyte genes Sox9 (A) and collagen 2 (B), hypertrophic genes collagen 10 (C), Runx2 (D), osterix (E) and alkaline phosphatase (F), articular cartilage associated genes lubricin (G) and cartilage intermediate layer protein 2 (CILP2) (H), interzone-related (joint progenitor) genes GDF5 (I), ERG (J) and Wnt9a (K). Expression is copy number relative to TBP (n=3 to 8 biological replicates) and is compared to primary fetal chondrocytes (aged 16 to 19 weeks, n=4), primary healthy adult articular chondrocytes (n=2), and growth plate-like chondrocytes isolated from the iliac crest of an adult (n=1). T15 Mesoderm indicates day 15 hESC-derived paraxial mesoderm (DM+FGF-treated). Error bars indicate s.e.m.
FIG. 8. TGFβ1, TGFβ2, and TGFβ3 generated articular chondrocytes from hPSC-derived paraxial mesoderm. COL2A1, lubricin, and CILP2 gene expression after 12 weeks of micromass culture in the presence of TGF agonists as indicated (10 ng/ml). Values represent copy number mRNA relative to TBP. Error bars indicate s.e.m.
Previous studies have shown that TGFBeta/BMP signaling is required to generate chondrocyte progenitors from paraxial mesoderm. […] Following 10 days of TGFb3 treatment (day 25 total), cultures could be switched to media containing BMP4 or maintained in TGFb3 (stage 4) in order to specify subsets of chondrocytes (articular/non-hypertrophic or growth plate/hypertrophic). To determine the chondrocyte potential of the day 15 mesoderm populations, the cells were plated at high cell density in a 20 microliter volume on tissue culture treated Petri dishes for an hour (micromass) and then the ‘spot’ was submerged/covered with media. In our initial studies, the cells were ‘spotted’ in a media containing 2% fetal bovine serum. However, this short serum exposure can be omitted with no effects on cartilage formation at later stages, making this protocol optionally serum-free. After 2 to 3 days, serum-free media containing TGFb3 is added to the culture to generate chondrocyte progenitors. […]

[3] = tested on: primitive streak-like mesoderm population; test: Paraxial mesoderm specification in monolayer culture, flow cytometry of cell surface markers
Method: FIG. 2. Characterization of paraxial mesoderm derived from hPSCs. Flow cytometric analysis of day 5 mesoderm treated with no additional factors (0 DM, no FGF), FGF, 4 μM DM, or 4 μM DM+FGF. Day 5 profiles depict KDR and PDGFRa expression, a double-positive population (gated) indicates mesoderm that has cardiac potential (20). Treatment with FGF results in less PDGFRa expression on day 5. (B) Expression of cell surface markers CD73, CD105, and PDGFR-beta on mesoderm populations on day 15 of differentiation. […] Experimental cell treatments during day 4 to day 6 include the combination of Dorsomorphin, bFGF, TGFbeta inhibitor (SB431542) in the presence or absence of the wnt pathway inhibitor IWP2. Flow cytometric analyses of CD73 and CD105, on day 15 mesoderm populations derived as indicated. (D) Gene expression analyses of day 15 mesoderm populations derived in indicated factors. Nkx2.5 is a cardiac transcription factor, Meox1 and Nkx3.2 are paraxial mesoderm and somite transcription factors. (E) Micrographs depicting 1 day old micromasses and 1 week old micromasses derived from day 15 mesoderm populations as indicated. (F) Flow cytometric analysis of cardiac troponin T (cTnT) expression in 1 week old micromasses derived from day 15 mesoderms as indicated. […] To generate chondrocytes, it is essential to first specify this PS population to a paraxial mesoderm fate. Previous studies have shown that mesoderm populations that express cell surface markers often found on mesenchymal stem cells, CD73 and CD105, have chondrogenic potential (Hwang, Kim et al. 2006). The expression of these two cell surface markers, as well as the expression of transcription factors Meox1 and Nkx3.2 combined with the lack of expression of Nkx2.5 to monitor the emergence of a paraxial mesoderm population was used. Previous experiments in the mouse ESC model system have shown the importance of inhibiting the BMP signaling pathway in the context of FGF signaling to prevent the emergence of cardiac mesoderm and promote the development of paraxial mesoderm (Craft, Ahmed et al. 2013). […] Very few cells in untreated mesoderm conditions expressed CD73 and CD105 (7.46%, FIG. 2B). […] The changes in expression of these surface markers were accompanied by the upregulation of paraxial genes Meox1 and Nkx3.2 (FIG. 2C). […] Thus, in some cell lines, the efficiency of paraxial mesoderm specification may be improved in the presence of a Wnt pathway antagonist immediately following the PS mesoderm induction phase.

[4] = tested on: day 15 mesoderm populations; test: Micromass assay of day 15 mesoderm populations
Method: FIG. 2. Characterization of paraxial mesoderm derived from hPSCs. Flow cytometric analysis of day 5 mesoderm treated with no additional factors (0 DM, no FGF), FGF, 4 μM DM, or 4 μM DM+FGF. Day 5 profiles depict KDR and PDGFRa expression, a double-positive population (gated) indicates mesoderm that has cardiac potential (20). Treatment with FGF results in less PDGFRa expression on day 5. (B) Expression of cell surface markers CD73, CD105, and PDGFR-beta on mesoderm populations on day 15 of differentiation. […] Experimental cell treatments during day 4 to day 6 include the combination of Dorsomorphin, bFGF, TGFbeta inhibitor (SB431542) in the presence or absence of the wnt pathway inhibitor IWP2. Flow cytometric analyses of CD73 and CD105, on day 15 mesoderm populations derived as indicated. (D) Gene expression analyses of day 15 mesoderm populations derived in indicated factors. Nkx2.5 is a cardiac transcription factor, Meox1 and Nkx3.2 are paraxial mesoderm and somite transcription factors. (E) Micrographs depicting 1 day old micromasses and 1 week old micromasses derived from day 15 mesoderm populations as indicated. (F) Flow cytometric analysis of cardiac troponin T (cTnT) expression in 1 week old micromasses derived from day 15 mesoderms as indicated. […] Previous studies have shown that TGFBeta/BMP signaling is required to generate chondrocyte progenitors from paraxial mesoderm. […] Following 10 days of TGFb3 treatment (day 25 total), cultures could be switched to media containing BMP4 or maintained in TGFb3 (stage 4) in order to specify subsets of chondrocytes (articular/non-hypertrophic or growth plate/hypertrophic). To determine the chondrocyte potential of the day 15 mesoderm populations, the cells were plated at high cell density in a 20 microliter volume on tissue culture treated Petri dishes for an hour (micromass) and then the ‘spot’ was submerged/covered with media. In our initial studies, the cells were ‘spotted’ in a media containing 2% fetal bovine serum. […]

[5] = tested on: day 15 mesoderm populations; test: Gene expression analyses of day 15 mesoderm populations
Method: FIG. 2. Characterization of paraxial mesoderm derived from hPSCs. Flow cytometric analysis of day 5 mesoderm treated with no additional factors (0 DM, no FGF), FGF, 4 μM DM, or 4 μM DM+FGF. Day 5 profiles depict KDR and PDGFRa expression, a double-positive population (gated) indicates mesoderm that has cardiac potential (20). Treatment with FGF results in less PDGFRa expression on day 5. (B) Expression of cell surface markers CD73, CD105, and PDGFR-beta on mesoderm populations on day 15 of differentiation. […] Experimental cell treatments during day 4 to day 6 include the combination of Dorsomorphin, bFGF, TGFbeta inhibitor (SB431542) in the presence or absence of the wnt pathway inhibitor IWP2. Flow cytometric analyses of CD73 and CD105, on day 15 mesoderm populations derived as indicated. (D) Gene expression analyses of day 15 mesoderm populations derived in indicated factors. Nkx2.5 is a cardiac transcription factor, Meox1 and Nkx3.2 are paraxial mesoderm and somite transcription factors. (E) Micrographs depicting 1 day old micromasses and 1 week old micromasses derived from day 15 mesoderm populations as indicated. (F) Flow cytometric analysis of cardiac troponin T (cTnT) expression in 1 week old micromasses derived from day 15 mesoderms as indicated. […] To generate chondrocytes, it is essential to first specify this PS population to a paraxial mesoderm fate. […]

[6] = 8- to 12-week old tissue, versus tissue maintained in TGFb3

BMP4: Bone Morphogenetic Protein 4
CD73 positive cells [1]: about 57% | CD73 positive cells (fetal chondrocytes; passaged (P2) fetal chondrocytes): 61% | CD73 positive cells (fetal chondrocytes; primary (P0) fetal chondrocytes): 70% | forward and side scatter of live cells (cell size, granularity) ([2]; 3 week and 5 week micromasses): larger forward scatter (FSC) | chondrocyte morphology ([2]; 5 week old micromasses): round with cobblestone-like appearance | COL10A1 expression [2, 6]: significantly higher | RUNX2 expression [2, 6]: significantly higher | SP7 expression [2, 6]: significantly higher | alkaline phosphatase (ALP/ALPL) expression [2, 6]: significantly higher | Lubricin protein (immunohistochemistry) ([2]; 12 week micromass tissue): not | tissue histology (toluidine blue), chondrocyte size ([2]; 13 week old tissues, GDF5 instead of BMP4): enlarged hypertrophic chondrocytes | cartilage tissue formation on direct plating of day 15 mesoderm ([2]; direct plating into BMP4 containing media, no TGFB3 stimulation): non-adherent cell aggregates that did not form cartilage tissue | COL2A1 expression ([2]; qRT-PCR, by 2 weeks of culture): upregulated | SOX9 expression ([2]; qRT-PCR, by 2 weeks of culture): upregulated

bFGF: basic fibroblast growth factor, FGF agonist
expression patterns of PDGFRa and KDR ([3]; T5, versus untreated mesoderm, DM T4 to T6): did not change the PDGFRa/KDR population drastically | proportion of cells expressing CD73 and CD105 ([3]; day 15, FGF day 4 to day 15, DM T4-T6): 52% | PDGF receptor beta expression on CD73-positive cells ([3]; day 15 monolayers): also expressed the PDGF receptor beta | generation of cardiomyocytes (cTnT) ([4]; 1 week of micromass culture): did not generate any cardiomyocytes | cartilage-like tissue formation ([4]; after 4 weeks of micromass culture, treatment in monolayer phase): did not maintain a cartilage tissue phenotype | adherence and survival in micromass culture ([4]; first week of micromass culture): survived the first week of micromass culture as an adherent layer of cells | Meox1 expression [5]: upregulation | Nkx3.2 expression [5]: upregulation
